# From US4175125A, “Method for treating methicillin resistant staphylococcus aureus” (Eli Lilly and Company, priority 1978, dated 1979)
# Like-named read-outs stand apart in the source and are kept apart here.
# Experiments:
# [1] = test system: Staphylococcus aureus cultures; assay: Broth dilution MIC in trypticase soy broth, low and high NaCl (Example 10); assay type: cell-based; settings: Staphylococcus aureus, TSB
# Method: This example compares the antibiotic activities of methicillin, cephalothin and cephaloridine with the compounds of Examples 1, 2 and 3, in broth dilution tests. The MIC values, in μg/ml., are against the same Staphylococcus aureus cultures described in Example 9, except that in this example the cultures were grown in trypticase soy broth (TSB). Growing the cultures in two broth cultures, one having a low (0.5 percent) sodium chloride content and one having a high (5.0 percent) sodium chloride content is said to assist in identifying the methicillin-resistant cultures from those which are not methicillin-resistant. […] See Chabbert, Y. A., 1967 Postgrad. Med. J., 43 (suppl); 40-46. One expects that similar changes in MIC values for this type of culture to other β-lactam antibiotics, e.g., various penicillins and cephalosporins, to have similar implications. […] That is, methicillin-resistant S.aureus cultures are susceptible to the cephalosporin antibiotics used in this invention.
# [2] = test system: Staphylococcus aureus cultures; assay: Modified Bauer-Kirby Disc Susceptibility Test (Example 11); assay type: cell-based; design: zone of inhibition: dose or concentration left out as unconfirmed; settings: for zone of inhibition: Staphylococcus aureus; for Change 37°-30°: 30 mg Disc
# Method: This example exemplifies the antibiotic activity of 7-[2'-(3"-chloro-4"-fluorophenylthio)acetamido]cephalosporanic acid, a water soluble compound, described in Example 8, against various Staphylococcus aureus cultures, in a modified Bauer-Kirby Disc Susceptibility Test (Bauer, A. W., W. M. M. Kirby, J. C. Sherris, and M. Turck, 1966, Amer. J. Clin. Pathol. 45:493-496). In this test the cultures were incubated at both 37° C. or 30° C. […] 16, 1968, the heterogeneity of methicilllin-resistant S. aureus is manifested by incubation at 30° C.
smiles,measurement,setting,value
"CC(=O)OCC1=C(C(=O)O)N2C(=O)[C@@H](NC(=O)Cc3cccs3)[C@H]2SC1 [Cephalothin, cephalothin, reference compound]",MIC,"[1]; culture (Seattle) 966, table part marked b",2 µg/mL
same,MIC,"[1]; culture (Seattle) 966, table part marked c",32 µg/mL
same,MIC,"[1]; culture H232 (control), table part marked b",0.5 µg/mL
same,MIC,"[1]; culture H232 (control), table part marked c",0.5 µg/mL
same,MIC,"[1]; culture Kavarnick 1138501, table part marked b",4 µg/mL
same,MIC,"[1]; culture Kavarnick 1138501, table part marked c",64 µg/mL
same,MIC,"[1]; culture S61, table part marked b",8 µg/mL
same,MIC,"[1]; culture S61, table part marked c",64 µg/mL
same,MIC,"[1]; culture S, table part marked b",8 µg/mL
same,MIC,"[1]; culture S, table part marked c",64 µg/mL
same,zone of inhibition,"[2]; culture 3055 (penicillin sensitive), 30°, read-out: disc susceptibility (zone) at 30°",> 35 mm
same,zone of inhibition,"[2]; culture 3055 (penicillin sensitive), 37°, read-out: disc susceptibility (zone) at 37°",> 35 mm
same,zone of inhibition,"[2]; culture 3074 (methicillin sensitive, penicillinase producing), 30°, read-out: disc susceptibility (zone) at 30°",32.1 mm
same,zone of inhibition,"[2]; culture 3074 (methicillin sensitive, penicillinase producing), 37°, read-out: disc susceptibility (zone) at 37°",31.8 mm
same,zone of inhibition,"[2]; culture 3125 (methicillin resistant), 30°, read-out: disc susceptibility (zone) at 30°",33.8 mm
same,zone of inhibition,"[2]; culture 3125 (methicillin resistant), 37°, read-out: disc susceptibility (zone) at 37°",33.4 mm
same,zone of inhibition,"[2]; culture 3130 (methicillin resistant), 30°, read-out: disc susceptibility (zone) at 30°",20.2 mm
same,zone of inhibition,"[2]; culture 3130 (methicillin resistant), 37°, read-out: disc susceptibility (zone) at 37°",32.8 mm
same,zone of inhibition,"[2]; culture 3131 (methicillin resistant), 30°, read-out: disc susceptibility (zone) at 30°",16.6 mm
same,zone of inhibition,"[2]; culture 3131 (methicillin resistant), 37°, read-out: disc susceptibility (zone) at 37°",29.6 mm
same,zone of inhibition,"[2]; culture 3132 (methicillin resistant), 30°, read-out: disc susceptibility (zone) at 30°",17.6 mm
same,zone of inhibition,"[2]; culture 3132 (methicillin resistant), 37°, read-out: disc susceptibility (zone) at 37°",28.6 mm
same,zone of inhibition,"[2]; culture 3133 (methicillin resistant), 30°, read-out: disc susceptibility (zone) at 30°",12.8 mm
same,zone of inhibition,"[2]; culture 3133 (methicillin resistant), 37°, read-out: disc susceptibility (zone) at 37°",28.8 mm
same,zone of inhibition,"[2]; culture 3134 (methicillin resistant), 30°, read-out: disc susceptibility (zone) at 30°",12.1 mm
same,zone of inhibition,"[2]; culture 3134 (methicillin resistant), 37°, read-out: disc susceptibility (zone) at 37°",27.8 mm
same,zone of inhibition,"[2]; culture 3135 (methicillin resistant), 30°, read-out: disc susceptibility (zone) at 30°",11.8 mm
same,zone of inhibition,"[2]; culture 3135 (methicillin resistant), 37°, read-out: disc susceptibility (zone) at 37°",28 mm
same,zone of inhibition,"[2]; culture 3136 (methicillin resistant), 30°, read-out: disc susceptibility (zone) at 30°",20.8 mm
same,zone of inhibition,"[2]; culture 3136 (methicillin resistant), 37°, read-out: disc susceptibility (zone) at 37°",35.6 mm
same,zone of inhibition,"[2]; culture 3137 (methicillin resistant), 30°, read-out: disc susceptibility (zone) at 30°",0 mm
same,zone of inhibition,"[2]; culture 3137 (methicillin resistant), 37°, read-out: disc susceptibility (zone) at 37°",17.8 mm
same,zone of inhibition,"[2]; culture 3138 (methicillin resistant), 30°, read-out: disc susceptibility (zone) at 30°",11.3 mm
same,zone of inhibition,"[2]; culture 3138 (methicillin resistant), 37°, read-out: disc susceptibility (zone) at 37°",26.2 mm
same,zone of inhibition,"[2]; culture 3139 (methicillin resistant), 30°, read-out: disc susceptibility (zone) at 30°",27 mm
same,zone of inhibition,"[2]; culture 3139 (methicillin resistant), 37°, read-out: disc susceptibility (zone) at 37°",32 mm
same,zone of inhibition,"[2]; culture 3140 (methicillin resistant), 30°, read-out: disc susceptibility (zone) at 30°",10.4 mm
same,zone of inhibition,"[2]; culture 3140 (methicillin resistant), 37°, read-out: disc susceptibility (zone) at 37°",29.7 mm
same,zone of inhibition,"[2]; culture H232 (methicillin sensitive, penicillinase producing), 30°, read-out: disc susceptibility (zone) at 30°",33.2 mm
same,zone of inhibition,"[2]; culture H232 (methicillin sensitive, penicillinase producing), 37°, read-out: disc susceptibility (zone) at 37°",33.4 mm
same,Change 37°-30°,[2]; culture 3074,+0.3 mm
same,Change 37°-30°,[2]; culture 3130,-12.6 mm
same,Change 37°-30°,[2]; culture 3131,-13.0 mm
same,Change 37°-30°,[2]; culture 3132,-11.0 mm
same,Change 37°-30°,[2]; culture 3133,-16.0 mm
same,Change 37°-30°,[2]; culture 3134,-15.7 mm
same,Change 37°-30°,[2]; culture 3135,-16.2 mm
same,Change 37°-30°,[2]; culture 3136,-14.8 mm
same,Change 37°-30°,[2]; culture 3137,> 17.8 mm
same,Change 37°-30°,[2]; culture 3138,-14.9 mm
same,Change 37°-30°,[2]; culture 3139,-5.0 mm
same,Change 37°-30°,[2]; culture 3140,-13.3 mm
same,Change 37°-30°,[2]; culture H232,-0.2 mm
